Test system: rat ileal mucosal permeability
Experiment: Intestinal mucosal permeability assay (FD4 clearance, everted gut sacs) after pressure-controlled hemorrhagic shock
Format: in vivo
Conditions: intraluminal
Description: Intestinal mucosal permeability assay. Animals were allowed access to water but not food for 24 h prior to the experiment in order to decrease the volume of intestinal contents. The rats were instrumented as described above.
A midline laparotomy was performed and the small intestine was exteriorized from the duodenojejunal junction to the ileocecal valve. A small incision was made on the antimesenteric aspect of the proximal small intestine and saline solution (1.5 ml) was injected. The bowel was ligated proximally and distally to the incision with 4-0 silk (LOOK, Reading, Pa.).
The small intestine was compressed gently in aboral direction along its length to displace intestinal contents into the colon. Starting 5 cm from the ileocecal valve, the ileum was partitioned into six contiguous water-tight segments. Each segment was 3 cm long and was bounded proximally and distally by constricting circumferential 4-0 silk sutures. Care was taken to ensure that the vascular supply to intestine was not compromised, and each segment was well-perfused.
Two randomly selected segments in each rat were injected with 0.3 ml of vehicle and served as “no treatment” controls. In order to fill the segments, a small incision was made and the solution was injected using a Teflon catheter (ABBOCATH 16Ga, ABBOTT LABORATORIES).
The remaining four other segments were injected with solutions containing either 4-hydroxy-2,2,6,6-tetramethylpiperidine-N-oxyl (TEMPOL) or one of the Gramicidin S-based compounds. Four different final concentrations of TEMPOL in normal saline were evaluated: 0.1, 1, 5 and 20 mM. The hemigramicidin-based compounds were dissolved in a mixture of dimethylsulfoxide (DMSO) and normal saline (1:99 v/v) and injected at final concentrations of 0.1, 1, 10 or 100 μM.
After the segments were loaded with saline or the test compounds, the bowel was replaced inside the peritoneal cavity and the abdominal incision was temporarily closed using Backhaus forceps.
After a 5 min stabilization period, hemorrhagic shock was induced by withdrawing blood via the jugular catheter. MAP was maintained at 30±3 mm Hg for 2 hours. The shed blood was re-infused as needed to maintain MAP within the desired range.
After 2 h of shock, the animals were euthanized with an intracardiac KCl bolus injection. The ileum was rapidly excised from the ileocecal valve to the most proximal gut segment. The tips of each segment were discarded. In order to assay caspases 3 and 7 activity and phospholipids peroxidation, mucosa samples were collected from gut segments immediately after hemorrhage and stored at −80° C. For permeability measurements, each segment was converted into an everted gut sac, as previously described by Wattanasirichaigoon et al., see Wattanasirichaigoon, S. et al., Effect of mesenteric ischemia and reperfusion or hemorrhagic shock on intestinal mucosal permeability and ATP content in rats, SHOCK, 12:127-133 (1999).
Briefly, as per the Wattanasirichaigoon protocol referenced above, the sacs were prepared in ice-cold modified Krebs-Henseleit bicarbonate buffer (“KHBB”), pH 7.4. One end of the gut segment was ligated with a 4-0 silk suture; the segment was then everted onto a thin plastic rod. The resulting gut sac was mounted on a Teflon catheter (Abbocath 16GA, Abbot Laboratories) connected to a 3 ml plastic syringe containing 1.5 ml of KHBB. The sac was suspended in a beaker containing KHBB plus fluorescein-isothiocyanate labeled dextran (average molecular mass 4 kDa; FD4; 0.1 mg/ml). This solution was maintained at 37° C., and oxygenated by bubbling with a gas mixture (O2 95%/CO2 5%). After 30 min, the fluid within the gut sac was collected. The samples were cleared by centrifugation at 2000 g for 5 min.
Fluorescence of FD4 in the solution inside the beaker and within each gut sac was measured using a fluorescence spectrophotometer (LS-50, PERKIN-ELMER, Palo Alto, Calif.) at an excitation wavelength of 492 nm and an emission wavelength of 515 nm. […]

CC(C)C[C@@H](/C=C/[C@H](Cc1ccccc1)C(=O)N1CCC[C@H]1C(=O)N[C@H](C(=O)N[C@@H](CCCNC(=O)OCc1ccccc1)C(=O)NC1CC(C)(C)N([O])C(C)(C)C1)C(C)C)NC(=O)OC(C)(C)C [XJB-5-131]
lowest effective concentration against ileal mucosal hyperpermeability: 1 µM
protection against hemorrhagic shock-induced ileal mucosal hyperpermeability (0.1-100 μM, 2 h shock): significantly ameliorated
potency relative to TEMPOL (gut mucosal protection): ~1000 fold
hemorrhagic shock-induced mucosal hyperpermeability relative to control value (control segments loaded with vehicle): approximately 60%

Reference: patent US9402839B2, “Selective targeting agents for mitochondria” (University of Pittsburgh—Of the Commonwealth System of …, priority 2006, dated 2016)
